Results published in patent US10281476B2, “Methods to identify modulators of RyR calcium channels” (REGENTS OF THE UNIVERSITY OF MINNESOTA, priority 2013, dated 2019).
Values belong to the compound of their own block, whether it stands above or below them. Where a SMILES comes first, the peptide text is derived from it. The star is where a group is joined. 5FAM = O=C1OC2(c3ccc(O)cc3Oc3cc(O)ccc32)c2ccc(C(=O)*)cc21

Key:
RyR2 [1] = target: T1, RyR2 (Rattus norvegicus, UniProt B0LPN4); assay: Steady-state F-DPc10 binding at the Z-line of saponin-permeabilized myocytes (confocal); parameters: endogenous in cells; host or cells: saponin-permeabilized adult rat ventricular myocytes; settings: in-cell binding isotherm, [Ca2+]i 50 nmol/L
Description: Rat ventricular myocytes were isolated and permeabilized as previously described (Li et al., Circ Res, 2002; 90:309-316). All procedures were performed according to the Guiding Principles in the Care and Use of the Animals and were approved by the Council of American Physiological Society. DPc10, FKBP12.6, and CaM were labeled at specific sites with small fluorescence probes, similar to our previous studies (Guo et al., Circ Res, 2010; 106:1743-1752; Cornea et al., PNAS USA, 2009; 106:6128-6133; Guo et al., Biophys J, 2011; 101:2170-2177).
Confocal images was measured using a Biorad RADIANCE2100™ laser scanning confocal microscope equipped with an Argon ion laser, Green HeNe laser and with a Nikon Fluo x40 oil lens. FRET (fluorescence resonance energy transfer) experiments between CaM and DPc10, and FKBP12.6 and DPc10 were performed using an Olympus FV1000 confocal microscope. All experiments were done at room temperature.
Myocytes were exposed to […] F-DPc10, with intracellular [Ca^2+] ([Ca^2+]i) set at 50 nmol/L. F-DPc10 fluorescence is highest at the Z-lines, where RyR2 is concentrated, forming a typical cross-striated pattern. The difference between fluorescence intensity at the Z-line (Fz) and M-line (FM) is taken to represent [F-DPc10] specifically bound at the myocyte Z-line. We calibrated the bound [F-DPc10] in permeabilized myocytes using the linear relationship between F-DPc10 fluorescence and bath [F-DPc10] (FIG. 7B). […] To further test whether this Z-line-associated F-DPc10 represents RyR2-bound F-DPc10, we measured FRET between FKBP12.6 (known to specifically bind to RyR2 with subnanomolar affinity) (Guo et al., Circ Res, 2010; 106:1743-1752) and F-DPc10. […] Donor (AF568-FKBP12.6) fluorescence at the Z-line was quenched by HF647-DPc10, but the M-line signal was not (FIG. 9B). […]
Target sequence in this assay (B0LPN4 whole entry): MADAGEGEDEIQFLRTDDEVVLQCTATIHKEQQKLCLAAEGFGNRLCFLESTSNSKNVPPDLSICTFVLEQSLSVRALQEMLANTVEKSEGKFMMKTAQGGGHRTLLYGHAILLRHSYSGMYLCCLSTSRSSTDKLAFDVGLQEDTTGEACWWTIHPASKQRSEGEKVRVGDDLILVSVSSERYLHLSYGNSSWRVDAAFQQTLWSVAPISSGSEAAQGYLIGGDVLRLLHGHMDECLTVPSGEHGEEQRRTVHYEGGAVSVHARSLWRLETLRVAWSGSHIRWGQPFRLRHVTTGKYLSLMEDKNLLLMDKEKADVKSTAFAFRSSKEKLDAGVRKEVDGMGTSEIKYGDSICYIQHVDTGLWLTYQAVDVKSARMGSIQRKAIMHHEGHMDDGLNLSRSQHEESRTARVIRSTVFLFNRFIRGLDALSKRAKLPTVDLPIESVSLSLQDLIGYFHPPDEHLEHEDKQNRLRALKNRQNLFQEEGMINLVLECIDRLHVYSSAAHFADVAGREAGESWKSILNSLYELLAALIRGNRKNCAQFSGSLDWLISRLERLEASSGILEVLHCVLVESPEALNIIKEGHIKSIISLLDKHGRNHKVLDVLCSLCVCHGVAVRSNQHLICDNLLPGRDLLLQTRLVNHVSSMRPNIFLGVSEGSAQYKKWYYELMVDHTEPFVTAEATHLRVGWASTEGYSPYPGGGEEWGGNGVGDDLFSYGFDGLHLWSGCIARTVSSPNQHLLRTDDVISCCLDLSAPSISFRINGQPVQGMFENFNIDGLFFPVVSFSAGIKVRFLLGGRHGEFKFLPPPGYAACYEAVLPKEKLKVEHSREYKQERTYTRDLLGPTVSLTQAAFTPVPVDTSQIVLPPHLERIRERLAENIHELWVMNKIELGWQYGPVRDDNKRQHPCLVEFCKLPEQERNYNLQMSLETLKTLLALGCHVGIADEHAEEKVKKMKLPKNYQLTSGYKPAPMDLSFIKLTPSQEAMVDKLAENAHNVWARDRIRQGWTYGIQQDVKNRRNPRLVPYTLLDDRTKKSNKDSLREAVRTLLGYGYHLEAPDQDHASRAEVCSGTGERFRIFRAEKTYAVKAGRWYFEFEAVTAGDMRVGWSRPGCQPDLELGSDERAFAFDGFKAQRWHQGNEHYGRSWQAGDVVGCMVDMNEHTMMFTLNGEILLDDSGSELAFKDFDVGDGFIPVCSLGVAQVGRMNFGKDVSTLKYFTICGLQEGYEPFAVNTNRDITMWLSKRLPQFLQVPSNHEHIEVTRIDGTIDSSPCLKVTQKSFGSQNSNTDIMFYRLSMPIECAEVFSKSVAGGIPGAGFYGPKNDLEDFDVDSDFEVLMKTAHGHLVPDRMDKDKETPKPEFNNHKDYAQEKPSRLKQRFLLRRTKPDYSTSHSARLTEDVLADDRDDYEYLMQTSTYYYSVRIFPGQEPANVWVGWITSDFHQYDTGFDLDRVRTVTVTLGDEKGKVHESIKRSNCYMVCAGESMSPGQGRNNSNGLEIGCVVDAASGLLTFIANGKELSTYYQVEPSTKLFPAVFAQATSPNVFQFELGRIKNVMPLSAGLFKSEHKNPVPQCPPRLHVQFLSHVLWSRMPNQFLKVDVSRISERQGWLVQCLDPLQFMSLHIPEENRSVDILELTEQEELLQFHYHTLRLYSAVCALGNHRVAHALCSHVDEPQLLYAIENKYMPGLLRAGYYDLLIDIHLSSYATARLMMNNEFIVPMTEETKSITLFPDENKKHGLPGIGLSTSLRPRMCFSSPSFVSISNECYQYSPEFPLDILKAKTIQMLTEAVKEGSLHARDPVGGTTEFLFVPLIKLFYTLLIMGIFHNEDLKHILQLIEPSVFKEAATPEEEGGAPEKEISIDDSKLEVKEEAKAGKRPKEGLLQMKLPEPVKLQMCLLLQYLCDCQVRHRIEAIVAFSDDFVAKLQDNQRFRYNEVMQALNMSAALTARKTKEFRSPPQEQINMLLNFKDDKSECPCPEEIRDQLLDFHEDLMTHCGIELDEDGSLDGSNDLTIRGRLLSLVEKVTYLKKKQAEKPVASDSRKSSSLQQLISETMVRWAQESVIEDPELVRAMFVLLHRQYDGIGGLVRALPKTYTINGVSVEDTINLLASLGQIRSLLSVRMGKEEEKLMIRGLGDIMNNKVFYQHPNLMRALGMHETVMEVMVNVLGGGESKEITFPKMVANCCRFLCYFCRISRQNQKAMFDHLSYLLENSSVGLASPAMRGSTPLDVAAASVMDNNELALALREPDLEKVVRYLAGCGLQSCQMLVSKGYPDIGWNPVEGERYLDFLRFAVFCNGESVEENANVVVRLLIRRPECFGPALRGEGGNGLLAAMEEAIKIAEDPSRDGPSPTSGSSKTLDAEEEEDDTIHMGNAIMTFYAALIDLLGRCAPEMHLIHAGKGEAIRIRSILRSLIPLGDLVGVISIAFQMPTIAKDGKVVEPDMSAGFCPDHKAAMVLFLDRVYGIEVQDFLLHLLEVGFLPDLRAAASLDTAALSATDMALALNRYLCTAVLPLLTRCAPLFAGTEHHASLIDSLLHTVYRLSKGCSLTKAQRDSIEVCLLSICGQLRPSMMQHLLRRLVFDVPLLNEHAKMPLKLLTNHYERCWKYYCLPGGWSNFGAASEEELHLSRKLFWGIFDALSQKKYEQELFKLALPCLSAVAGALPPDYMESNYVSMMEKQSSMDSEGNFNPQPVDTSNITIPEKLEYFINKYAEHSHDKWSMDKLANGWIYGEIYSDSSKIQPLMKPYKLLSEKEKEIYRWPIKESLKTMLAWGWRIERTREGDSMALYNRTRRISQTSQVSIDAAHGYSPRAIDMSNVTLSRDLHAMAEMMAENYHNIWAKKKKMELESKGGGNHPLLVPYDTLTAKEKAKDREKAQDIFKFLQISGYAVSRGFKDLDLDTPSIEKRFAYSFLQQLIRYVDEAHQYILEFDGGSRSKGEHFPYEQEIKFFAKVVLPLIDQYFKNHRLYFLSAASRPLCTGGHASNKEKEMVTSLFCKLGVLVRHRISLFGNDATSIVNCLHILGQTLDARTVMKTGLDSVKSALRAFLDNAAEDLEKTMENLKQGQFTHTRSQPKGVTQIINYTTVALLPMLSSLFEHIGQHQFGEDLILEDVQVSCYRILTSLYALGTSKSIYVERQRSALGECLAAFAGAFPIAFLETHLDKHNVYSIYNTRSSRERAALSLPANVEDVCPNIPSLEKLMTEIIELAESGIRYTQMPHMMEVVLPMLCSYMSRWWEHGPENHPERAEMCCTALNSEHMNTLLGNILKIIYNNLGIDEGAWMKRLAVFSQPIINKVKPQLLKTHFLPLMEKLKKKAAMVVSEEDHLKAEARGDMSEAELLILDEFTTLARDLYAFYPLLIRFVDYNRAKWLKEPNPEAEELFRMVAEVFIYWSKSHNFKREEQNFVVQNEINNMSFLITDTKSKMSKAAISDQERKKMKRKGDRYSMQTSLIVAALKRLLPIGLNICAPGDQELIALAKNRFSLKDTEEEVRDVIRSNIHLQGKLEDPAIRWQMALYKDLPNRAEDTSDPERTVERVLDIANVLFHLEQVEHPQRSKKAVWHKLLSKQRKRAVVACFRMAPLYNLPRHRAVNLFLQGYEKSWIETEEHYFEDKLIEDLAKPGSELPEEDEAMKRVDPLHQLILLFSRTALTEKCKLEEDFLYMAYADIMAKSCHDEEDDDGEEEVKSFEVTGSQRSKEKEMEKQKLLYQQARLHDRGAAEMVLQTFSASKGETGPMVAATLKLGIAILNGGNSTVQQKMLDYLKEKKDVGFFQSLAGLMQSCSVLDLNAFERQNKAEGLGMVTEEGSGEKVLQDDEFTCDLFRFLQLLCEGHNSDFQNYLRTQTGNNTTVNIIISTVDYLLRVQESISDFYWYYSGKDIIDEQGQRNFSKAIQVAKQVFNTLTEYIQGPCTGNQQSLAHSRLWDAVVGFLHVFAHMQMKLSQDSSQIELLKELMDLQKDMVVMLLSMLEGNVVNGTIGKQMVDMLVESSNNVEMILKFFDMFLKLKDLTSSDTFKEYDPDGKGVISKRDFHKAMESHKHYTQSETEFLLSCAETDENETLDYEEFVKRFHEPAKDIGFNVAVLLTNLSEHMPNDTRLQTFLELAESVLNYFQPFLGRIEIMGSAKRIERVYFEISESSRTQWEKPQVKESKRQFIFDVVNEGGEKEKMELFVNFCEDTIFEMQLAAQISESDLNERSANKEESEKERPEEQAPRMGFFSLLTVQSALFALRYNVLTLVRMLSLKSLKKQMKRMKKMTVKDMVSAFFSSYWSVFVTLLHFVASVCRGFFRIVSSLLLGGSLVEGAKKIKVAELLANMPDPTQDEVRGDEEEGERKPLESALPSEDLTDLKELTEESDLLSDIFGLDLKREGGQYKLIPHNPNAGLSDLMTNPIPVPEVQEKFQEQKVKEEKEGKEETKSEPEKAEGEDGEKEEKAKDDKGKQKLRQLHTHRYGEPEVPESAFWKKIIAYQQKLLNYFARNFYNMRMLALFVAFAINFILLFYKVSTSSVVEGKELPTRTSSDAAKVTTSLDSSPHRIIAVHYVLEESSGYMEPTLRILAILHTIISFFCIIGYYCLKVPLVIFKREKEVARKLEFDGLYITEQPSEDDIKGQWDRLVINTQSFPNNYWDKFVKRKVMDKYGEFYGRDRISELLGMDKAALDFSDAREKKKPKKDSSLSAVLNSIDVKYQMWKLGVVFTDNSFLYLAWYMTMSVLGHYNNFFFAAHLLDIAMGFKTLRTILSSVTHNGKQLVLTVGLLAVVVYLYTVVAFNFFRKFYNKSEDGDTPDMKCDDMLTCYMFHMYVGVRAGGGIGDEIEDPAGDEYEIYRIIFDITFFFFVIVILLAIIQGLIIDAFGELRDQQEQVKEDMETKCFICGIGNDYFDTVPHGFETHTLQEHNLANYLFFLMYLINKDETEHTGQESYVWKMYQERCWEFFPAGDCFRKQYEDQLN

RyR2 [2] = target: T1, RyR2; assay: HF647-DPc10 wash-in kinetics by FRET from F-FKBP (donor quench) in permeabilized myocytes; type: binding; parameters: These fluorescent proteins were added to saponin-permeabilized myocytes with or without pre-equilibration with saturating DPc10 concentration; endogenous in cells; host or cells: saponin-permeabilized rat ventricular myocytes; settings: myocytes
Description: The FRET pair we used in this consisted of ALEXA FLUOR™ 488 (donor) covalently attached to FKBP12.6 (F-FKBP) and HiLyte Fluor™647 (acceptor) covalently attached to DPc10 (F-DPc10).^8 To detect F-DPc10 specifically bound to RyR2, we measured donor fluorescence intensities through a 500-530 nm bandpass filter before and after equilibration with acceptor (donor quenching method). The FRET efficiency (E) was calculated according to: E=1-FDA/FD, Where FD and FDA are the fluorescence intensities of the donor-only and donor-plus-acceptor samples, respectively (Oda et al., Circ Res. 2013;112:487-497). Statistics
Next we tested whether RyR2 oxidation would increase HF647-DPc10 access. Here, we used FRET between F-FKBP as a donor and HF647-DPc10 as an acceptor, to detect DPc10 that specifically binds at RyR2 (Oda et al., Circ Res. 2013; 112:487-497).
Target sequence in this assay (B0LPN4 whole entry): as above
Target sequence in this assay (P68106 with tags, fused parts or gaps T15C/C23A/C77I partner): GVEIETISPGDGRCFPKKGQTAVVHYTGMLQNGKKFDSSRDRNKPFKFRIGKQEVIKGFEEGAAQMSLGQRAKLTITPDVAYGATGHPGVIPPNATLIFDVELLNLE

RyR2 [3] = target: T1, RyR2; assay: F-DPc10 wash-in and washout kinetics at the myocyte Z-line; type: binding; parameters: endogenous in cells; host or cells: saponin-permeabilized adult rat ventricular myocytes
Description: To characterize DPc10-binding kinetics at Z-lines, we performed F-DPc10 wash-in (500 nmol/L) and washout experiments in permeabilized myocytes (FIG. 10A). Association (τwash-in=79.0±3.2 minutes) and dissociation (τwashout=149.8±4.4 minutes) were very slow compared with similar FKBP12.6 measurements (Guo et al., Circ Res, 2010; 106:1743-1752). From the wash-in/washout measurements, we calculated the association and dissociation rates constants, kon and koff, respectively, according to the following equation: kwash-in=[F-DPc10]kon+koff where kwashout≈koff and k=1/τ (s^−1). Accordingly, kon=202±20 (L mol^−1 s^−1) and koff=0.11±0.01 (10^−3 s^−1). […] We repeated this kinetic analysis using FRET between FKBP12.6 and DPc10, thus assessing the RyR2-specific DPc10 binding (FIG. 11A AND 11B). […] Based on these kinetic and affinity analyses, we infer that most of the Z-line-specific DPc10 binding is to RyR2. This is also consistent with Bmax, which would imply ≈1 DPc10 per RyR2 monomer.
We were intrigued by the slow kwash-in and conducted measurements to further understand the basis of this slow association. We tested the hypothesis that at resting [Ca^2+]i, DPc10 access to its RyR2 binding site is sterically hindered. If the N-terminal and central domains are tightly zipped to each other, then this interaction may occlude the DPc10-binding site on the RyR2, thus limiting the kon for DPc10. Alternatively, a limiting factor may be the rate at which DPc10 adopts a conformation that can bind to RyR2. To discern between these mechanisms, we determined the effect of [F-DPc10] on τwash-in. If the small fraction of DPc10 in the right conformation limits binding rate, then τwash-in should be faster at higher [F-DPc10], according to Equation. […] Instead, a 10-fold increase in [F-DPc10] had no significant effect on the τwash-in, although it did increase Bmax (FIG. 10B). The same was seen when using FKBP12.6-DPc10 FRET to assess τwash-in with 0.5 vs 5 μmol/L HF647-DPc10 (FIG. 12A AND 12B).
In our working model, under resting conditions, the RyR2 closed state may be stabilized by the interaction between the N-terminal and central domain in the zipped state. We hypothesized that conditions that promote RyR2 opening might enhance the rate of unzipping and accelerate τwash-in for F-DPc10. To test this, we first monitored F-DPc10 wash-in at elevated Ca^2+ (500 nmol/L). However, the 13% faster mean τwash-in was not significant (FIG. 13A). […] Thus, we preincubated myocytes with ryanodine (100 μmol/L) plus caffeine ([…]), which are known to favor long RyR2 openings and were reported to cause RyR2 domain unzipping in HEK293 cells (Liu et al., J Cell Sci, 2010; 123: 1775-1784). Ryanodine+caffeine produced a 21% faster τwash-in (P=0.002; FIG. 13B). However, the most significant effect was seen after presaturating RyR2 with NF-DPc10 (and then NF-DPc10 washout with F-DPc10 present; FIG. 13A). […] Assuming that koff of NF-DPc10 is the same as for F-DPc10 and using Equation, the kon is increased by 3.2-fold by unzipping as a result of prebinding of NF-DPc10 to the RyR2. Our working hypothesis is that the RyR2 open state may increase the probability of an RyR2 shifting to the unzipped state and may allow faster F-DPc10 wash-in. It also seems that the RyR2 open state (favored by caffeine-ryanodine) differs from the unzipped state (bound with DPc10).
Both FKBP12.6 and CaM bind to the RyR2 and can reduce channel opening, which might alter DPc10 binding. […] Neither CaM nor FKBP12.6 pretreatment altered M-line F-DPc10 fluorescence (FIG. 15). […] We infer that CaM stabilizes the domain interaction between N-terminal and central domains in the zipped state and thereby may reduce DPc10 access to its binding site. To test for direct CaM-DPc10 interaction, we performed control FRET measurements between donor-labeled CaM and acceptor-labeled DPc10 in solution in the absence of RyR. The maximal FRET efficiency (<1%) ruled out direct CaM-DPc10 interaction. […]
Target sequence in this assay (B0LPN4 whole entry): as the sequence (B0LPN4 whole entry) above

RyR = assay: Pilot FLT-FRET screen of NIH Clinical Collection 1 with D-FKBP and A-CaM near their Kd; type: binding; settings: preliminary screen
Source text: The optimal concentration of A-CaM may vary from sarcoplasmic reticulum to cell samples, but using a concentration of A-CaM that is at or near its Kd will allow detection of enhanced CaM binding by FRET assays. Compounds that modulate CaM binding are expected to also affect RyR channel function, which can optionally be determined in secondary functional assays. […] A pilot screen of NIH Clinical Collection 1 used donor labeled FKBP and acceptor labeled CaM near their Kd.
Using the method illustrated in FIGS. 3 and 4, a preliminary screen of NIH Clinical Collection 1 (NCC1, 446 compounds) was conducted. The concentrations of A-CaM and D-FKBP were near their Kd. […] In FIG. 36, we represented the effect of compounds on FRET as E(compound)/E(control) (E/E0). Values outside the 3SD threshold (dotted line) are considered hits. Increased FRET (E/E0>1) indicates increased FKBP and/or CaM binding; decreased FRET (E/E0<1) indicates decreased FKBP and/or CaM binding.

[4] = calculated from wash-in/washout

Structure (SMILES): CC[C@H](C)[C@H](NC(=O)CNC(=O)[C@H](Cc1ccc(O)cc1)NC(=O)[C@@H](NC(=O)[C@H](CCCNC(=N)N)NC(=O)[C@H](CC(=O)O)NC(=O)[C@H](CC(C)C)NC(=O)[C@H](Cc1ccccc1)NC(=O)[C@H](CC(C)C)NC(=O)[C@@H](NC(=O)[C@H](CCSC)NC(=O)[C@H](C)NC(=O)[C@H](C)NC(=O)[C@H](CCCCN)NC(=O)[C@H](Cc1c[nH]cn1)NC(=O)[C@H](CC(=O)O)NC(=O)[C@@H]1CCCN1C(=O)[C@H](CS)NC(=O)[C@H](Cc1ccccc1)NC(=O)CNC(=O)c1ccc2c(c1)C(=O)OC21c2ccc(O)cc2Oc2cc(O)ccc21)C(C)C)C(C)C)C(=O)N[C@@H](CCC(=O)O)C(=O)N[C@H](C(=O)N[C@@H](CCC(N)=O)C(=O)N[C@@H](CC(=O)O)C(=O)N[C@@H](Cc1ccccc1)C(=O)N[C@@H](CC(C)C)C(=O)N[C@@H](CC(C)C)C(=O)N[C@@H](Cc1c[nH]cn1)C(=O)N[C@@H](CC(C)C)C(=O)N[C@@H](CC(C)C)C(=O)N[C@@H](CCC(=O)O)C(=O)N[C@H](C(=O)NCC(=O)N[C@@H](Cc1ccccc1)C(=O)N[C@@H](CC(C)C)C(=O)N1CCC[C@H]1C(=O)O)C(C)C)C(C)C [F-DPc10] (5FAM-GFCPDHKAAMVLFLDRVYGIEVQDFLLHLLEVGFLP-OH)
maximal binding (Bmax), concentration of F-DPc10-binding sites (RyR2 [1]): 1.59±0.03 μmon
τwash-in in controls (RyR2 [2]): ~80 min
association τwash-in (RyR2 [3]; F-DPc10 500 nmol/L): 79.0 ± 3.2 min
dissociation τwashout (RyR2 [3]; F-DPc10 500 nmol/L): 149.8 ± 4.4 min
koff (RyR2 [3]; [4]): 0.00011 ± 1e-05 s⁻¹
kon (RyR2 [3]; [4]): 202 ± 20 M⁻¹ s⁻¹
kon slower than that measured for FKBP12.6 (RyR2 [3]; similar conditions): ≈ 1800 fold

effect on FRET, E(compound)/E(control); hit = outside the 3SD threshold (RyR): hits
Structure (SMILES): O=C1N(c2ccccc2)c2ccccc2C1(Cc1ccncc1)Cc1ccncc1 [Linopirdine]

effect on FRET, E(compound)/E(control); hit = outside the 3SD threshold (RyR): hits
Structure (SMILES): Nc1nc(Cl)nc2c1ncn2[C@H]1C[C@H](O)[C@@H](CO)O1 [Cladribine]

effect on FRET, E(compound)/E(control); hit = outside the 3SD threshold (RyR): among the hits
effect on FRET, E(compound)/E(control); hit = outside the 3SD threshold (RyR; listed as FK506): reducing FRET
Structure (SMILES): C=CC[C@@H]1/C=C(\C)C[C@H](C)C[C@H](OC)[C@H]2O[C@@](O)(C(=O)C(=O)N3CCCC[C@H]3C(=O)O[C@H](/C(C)=C/[C@@H]3CC[C@@H](O)[C@H](OC)C3)[C@H](C)[C@@H](O)CC1=O)[C@H](C)C[C@@H]2OC [Tacrolimus]

effect on FRET, E(compound)/E(control); hit = outside the 3SD threshold (RyR): hits
Structure (SMILES): NC(=O)c1cccnc1 [Nicotinamide]
